This is an account of results in patent US20070093520A1, “Method of treatment of diarrhea-predominant irritable bowel syndrome in a subject” (priority 2005, published 2007).

Series [1] relates to diarrhea-predominant IBS subjects. Description: 3008 Study: 12-lead ECG abnormalities. The conditions noted are these: 3007 Study. It counts as in vivo, human. As to the method:
Resting 12-lead ECGs were performed at Day 1 (Visit 5 of the core protocol), Months 1, 6, and 12 (end of study or early termination visit). A centralized ECG service was used to evaluate all ECG tracings to supply consistent standardized ECG interpretation.
For by-visit assessments, visit windows were assigned to the post-Baseline assessments as follows (vital signs, laboratory tests, and ECGs):
All analyses and summaries for ECG assessments were based on the evaluation performed in the central ECG laboratory.
Summary statistics are presented for PR, QRS, QT, and QTc intervals (Bazett and Fridericia formulas) and heart rate at each visit and at Endpoint, as well as for change from Baseline results at each post-Baseline visit and at Endpoint. Bazett's and Fridericia's QTc intervals were calculated based on the following formulas: Bazett: QTc intervals=QT/√RR Fridericia: QTc intervals=QT/^3√RR
Markedly abnormal ECG parameter values collected after the first dose of study medication and within 30 days of the last dose of study medication were summarized overall. The following criteria were applied to identify markedly abnormal parameter values: • PR ≧0.210 sec; • QRS ≧0.120 sec; • QTc >0.440 sec;
The incidence of treatment-emergent ECG abnormalities is presented overall and by type of abnormality. A treatment-emergent ECG abnormality was an abnormality identified by the ECG core laboratory that was not present at baseline (e.g., prior to the entry into core Study 3006), and was observed on or after initiation of study medication and up to 30 days after discontinuation of study medication. The incidence of treatment-emergent ECG abnormalities is presented by time interval, as well as overall for the entire treatment period. The incidence of treatment-emergent abnormalities is also presented in more general categories (e.g., presenting incidence of treatment-emergent myocardial infarction overall as well as by location), depending on whether it mitigates the interpretation.

Series [2] shares this test system. Description: 3007 Study: laboratory marked abnormalities. It counts as in vivo, human. To be noted: Study 3007. As to the method: Subjects were encouraged to fast at least six hours prior to laboratory samples being drawn. Laboratory safety tests were performed at Day 1 (Visit 5 of the core protocol), Months 1, 6, and 12 (end of study or at the early termination visit). Blood and urine were analyzed for:
• Prothrombin time (PT) (only before colonoscopy, as per clinical practice) • Hemoglobin • Hematocrit • Red blood cell count (RBC) • White blood cell count (WBC) • Differential blood count • Platelet count Blood Chemistry: • Glucose • Creatinine • Blood urea nitrogen (BUN) • Creatine kinase (CK) • Alkaline phosphatase (AP) • Total bilirubin • Alanine aminotransferase (ALT/SGPT) • Aspartate aminotransferase (AST/SGOT) • Gamma-glutamyltransferase (GGT) • Triglycerides • Cholesterol • Total protein • Uric acid • Sodium • Potassium • Calcium • Quantitative beta human chorionic gonadotrophin (β-HCG) (at every visit) • Thyroid stimulating hormone (visit 1 only) Urine: • Urobilinogen • Blood • Bilirubin • Ketones • Glucose • Protein • Nitrite • Leukocytes • pH • Dipstick pregnancy test (Day 1 only, if necessary) Stool: • Parasite, ova and stool culture (visit 1 only, if necessary) • Occult blood (analysis at each visit)
Laboratory data are presented in conventional units. Only one central laboratory was used for each laboratory parameter, thus no laboratory normalization was carried out.
For Study 3007, “baseline” was defined as Visit 1 of core Study 3006 for subjects randomized to the cilansetron treatment group in Study 3006 and as the last post-Baseline visit of Study 3006 (normally Visit 5) for subjects randomized to the placebo group in Study 3006.
Summary statistics are presented for all hematology and chemistry parameters at each analysis timepoint and at Endpoint, as well as for change from Baseline results at each post-Baseline analysis timepoint and at Endpoint. For laboratory assessments that were gender specific, summaries were presented separately for males and females. A listing of laboratory assessments for hematology, chemistry, and urinalysis parameters is presented. The following categories were used for the urinalysis parameter summaries: • pH: ≦5.0, >5.0 to ≦6.0, >6.0 to ≦7.0, and >7.0 • glucose, total protein, ketones, total bilirubin, nitrite, RBC (erythrocytes), and urobilinogen: negative and other (consisting of ‘trace’, ‘positive’, ‘+’, ‘++’, ‘+++’, or ‘++++’) • WBC (leukocytes): negative, positive
The overall incidence of post-Baseline marked abnormalities for hematology and chemistry parameters is also presented. Where applicable, the incidence of post-Baseline marked abnormalities is presented separately by whether the value was abnormally high or low. Any post-Baseline markedly abnormal laboratory measurement collected after the first dose of cilansetron and within 30 days of the last dose of cilansetron was included. However, assessments which were done more than 30 days after last subject visit and after database lock were not included in the analysis. Subjects were counted at most once for the post-Baseline marked abnormality for each laboratory parameter.

Structures are written as SMILES. A value given as a limit tells only on which side of the number the result lay.

With `Cc1nccn1C[C@H]1CCc2c(c3cccc4c3n2CCC4)C1=O` [cilansetron, (R)-(−)-4,5,6,8,9,10-hexahydro-10-[(2-methyl-1H-imidazol-1-yl)methyl]-11H-pyrido-[3,2,1-jk]-carbazol-11-one], in series [1], the “ECG abnormality: early-repolarization-normal variant” value is reported as over 10%, the “ECG abnormality: sinus arrhythmia” value is over 10% and the “ECG abnormality: sinus bradycardia” value is recorded as over 10%. Besides, the “incidence of treatment-emergent markedly abnormal QTc(F)” value in series [1] (30 subjects) is 2%. Further, the “incidence of treatment-emergent markedly abnormal QTc(B)” value in series [1] (105 subjects) is recorded as 8%. Besides, in series [2], the “post-Baseline markedly high CK” value is listed as 3%, the “post-Baseline markedly high eosinophils” value is listed as 1%, the “post-Baseline markedly high triglycerides” value is 3% and the “post-Baseline markedly high uric acid” value was found to be 1%. In addition, the “post-Baseline markedly high GGT” value in series [2] (females) is 5%. Further, the “post-Baseline markedly high GGT” value in series [2] (males) is on record as 7%. In addition, in series [2] (overall), the “post-Baseline markedly high GGT” value was found to be 6%.
